Experimental data reported in US20110033430A1, “METHODS FOR THE INDUCTION OF A CELL TO ENTER THE ISLET 1+ LINEAGE AND A METHOD FOR THE EXPANSION THEREOF” (THE GENERAL HOSPITAL CORPORATION, priority 2007, published 2011).
Entries after “also recorded” stand apart in the source; their conditions may differ.

Key:
[1] = tested on: postnatal isl1+ cardiovascular progenitors; assay: Expansion of postnatal isl1+ cardiovascular progenitors, isl1 immunostaining; type: cell-based, mouse; parameters: increase of number of isl1+ progenitors versus control: dose or concentration left out as unconfirmed; settings: for number of isl1+ progenitors: isl1 immunostaining, versus control
Protocol: Immunohistochemical Analyses and lacZ Staining. Cells in culture or paraffin embedded sections were fixed with 4% paraformaldehyde and subjected to immunostaining. For mouse embryo cryosections, they were saturated with 20% sucrose followed by section and 2% PFA fix for 10 min at room temperature. The following primary antibodies were used in this study: isl1 (mouse monoclonal antibody, clone 39.4D5, clone 2D6 (Developmental Studies Hybridoma Bank, 1:100), cardiac troponin T (mouse monoclonal antibody, NeoMarkers, 1:200), smooth muscle myosin heavy chain (rabbit polyclonal, Biomedical Technologies Inc., 1:100), smooth muscle actin (mouse monoclonal, clone 1A4, Dako, 1:100; rabbit polyclonal, Abcam), phosphohistone H3 (rabbit polyclonal, Upstate). Alexa Fluor 488- or Alexa Fluor 594-conjugated secondary antibodies specific to the appropriate species were used (Molecular Probes, 1:350). 3D reconstruction was done using Winsuf from Surfdriver Software. For immunoperoxidase staining, the VECTASTAIN ABC® system (VECTOR Laboratories) was used, accordingly to the vendors' instructions. 5 μm frozen sections and cultured cells were fixed with 0.2% and 0.05% glutaraldehyde respectively for 10 min at 4° C. followed by 3 times wash with PBS. LacZ stainings were then performed on these samples by incubating with X-Gal solution containing 40 mM HEPES, pH 7.4, 5 mM K3(Fe(CN)6), 5 mM K4(Fe(CN)6), 2 mM MgCl2, 15 mM NaCl, and 1 mg/ml X-Gal. For LacZ staining on EB-derived clones expanded on CMC, 0.02% NP-40 was added to the X-Gal solution for better permeabilization. When combining LacZ staining with immunoperoxidase analyses, samples were processed first for LacZ staining at room temperature over night, followed by a re-fixation with 4% paraformaldehyde prior to the immunoperoxidase stainings for specific epitopes or by re-fixation with 2% gluteraldehyde to perform EM studies.
Statistic Analysis. Data were analyzed with two-tailed Student's t test and the results reported are statistically significant with p value <0.05. Standard error of the mean (SEM) is given for each mean value. For immunofluorescent analyses for postnatal isl1^+ cardiovascular progenitors, the cells within the whole well in an 8-well chamber slide were examined for Isl1 expression to obtain better statistic comparison.
Although there was only a small increase over the control, the effect of these compounds was highly reproducible and statistically significant (p<0.05, 0.01, or 0.001, FIG. 2C). […] Two of these compounds were unknown (compound A and compound B), and the third was 6-bromoindirubin-3′-oxime (BIO), previously shown to be an inhibitor of GSK-3 (Meijer et al., 2003). BIO has been recently shown to promote self-renewal of both human and mouse ES cells through activation of the wnt/β-catenin pathway in combination with other signaling inputs (Sato et al., 2004). The inventors explored the role of BIO on the renewal of isl1^+ progenitors.
Wnt/β-Catenin Pathway Plays a Pivotal Role in the Control of Isl1+ Progenitor Expansion. […] The inventors examined whether Wnt3a, a well-established ligand in the Wnt/β-catenin pathway (Logan and Nusse, 2004), was able to expand postnatal isl1^+ progenitors.

murine Wls/Evi = target: T1, murine Wls/Evi (Mus musculus, UniProt Q6DID7); assay: Wnt reporter (superTOPFLASH) coculture with siRNA-transfected Wnt3a-producing cells, luciferase; type: cell-based; settings: coculture with transfected Wnt3a-secreting cells, versus control
T1 construct: endogenous in cells; host or cells: Wnt3a-producing (Wnt3a-secreting) cell line (ATCC), cocultured with superTOPFLASH Wnt reporter cells
T1 sequence (Q6DID7 1-541): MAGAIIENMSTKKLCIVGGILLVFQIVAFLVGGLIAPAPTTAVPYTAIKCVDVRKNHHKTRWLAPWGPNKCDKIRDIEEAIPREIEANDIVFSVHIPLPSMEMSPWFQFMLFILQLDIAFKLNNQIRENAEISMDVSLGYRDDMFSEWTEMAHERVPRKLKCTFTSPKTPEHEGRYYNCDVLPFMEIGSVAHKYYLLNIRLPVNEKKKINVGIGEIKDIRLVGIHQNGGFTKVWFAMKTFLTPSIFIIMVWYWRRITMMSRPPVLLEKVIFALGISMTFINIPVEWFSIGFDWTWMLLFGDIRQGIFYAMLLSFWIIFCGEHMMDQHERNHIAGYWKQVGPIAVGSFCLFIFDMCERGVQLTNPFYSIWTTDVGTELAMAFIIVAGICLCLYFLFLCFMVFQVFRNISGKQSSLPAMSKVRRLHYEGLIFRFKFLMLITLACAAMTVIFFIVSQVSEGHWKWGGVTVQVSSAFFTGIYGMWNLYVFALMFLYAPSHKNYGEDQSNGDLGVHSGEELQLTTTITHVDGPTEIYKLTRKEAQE
Description: Production of Reagents for Wnt Pathway. Wnt3a or control-conditioned medium was produced as following. A Wnt3a-secreting cell line (ATCC) was allowed to grow to conflency and subcultured at 1:20 ratio prior to replenish with fresh medium. Three batches of conditioned medium were harvested every 48 hrs. Dkk1-conditioned medium was produced by transiently transfecting a Dkk1-expressing cDNA (generously provided by Dr. Randall T. Moon) into the HEK293T cell line with FuGENE 6 (Roche). The supernatant was harvested 72 hrs after transfection. A Wnt-reporter cell line, superTOPFLASH, was a generous gift from Dr. Randall T. Moon.
Small hairpin RNAs (shRNAs) oligonucleotide sequences were designed based on the following target sequences: siWLS-A ([…]) (SEQ ID NO:1) and siWLS-B (GGGTTACCGTGATGATATG, (SEQ ID NO:2) and subcloned into the retro-viral vector, RNAi-Ready pSIREN-RetroQ-DsRed-Express (Clontech) according to vendor's instructions. Negative control shRNA annealed oligonucleotide was provided by the vendor and cloned to the same vector. Retro-viral siRNAi particles were produced by transiently transfect these vectors into the packaging cell line EcoPack 2-293 cells with GENE 6 (Roche). Viral supernatant was harvested 72 hrs after transfection.
The inventors confirmed this effect by blocking the secretion of Wnt ligands from the CMC. […]

[2] = tested on: isl1-nlacZ knockin ES cell-derived precursors; assay: Prespecification of mesodermal precursors toward MICPs on CMC feeder, single β-gal+ cells after 24 hr; type: cell-based, mouse; settings: 24 hr on CMC feeder, versus control
Protocol: Immunohistochemical Analyses and lacZ Staining. Cells in culture or paraffin embedded sections were fixed with 4% paraformaldehyde and subjected to immunostaining. For mouse embryo cryosections, they were saturated with 20% sucrose followed by section and 2% PFA fix for 10 min at room temperature. The following primary antibodies were used in this study: isl1 (mouse monoclonal antibody, clone 39.4D5, clone 2D6 (Developmental Studies Hybridoma Bank, 1:100), cardiac troponin T (mouse monoclonal antibody, NeoMarkers, 1:200), smooth muscle myosin heavy chain (rabbit polyclonal, Biomedical Technologies Inc., 1:100), smooth muscle actin (mouse monoclonal, clone 1A4, Dako, 1:100; rabbit polyclonal, Abcam), phosphohistone H3 (rabbit polyclonal, Upstate). Alexa Fluor 488- or Alexa Fluor 594-conjugated secondary antibodies specific to the appropriate species were used (Molecular Probes, 1:350). 3D reconstruction was done using Winsuf from Surfdriver Software. […]
The wnt/β-Catenin Pathway Regulates the Prespecification, Expansion, and Differentiation of Isl1+ Cardiovascular Progenitors. […] To score the effect of the CMC feeder on the prespecification of mesodermal precursors toward MICPs, the inventors quantified the single b-gal^+ cells 24 hr after treatment with various reagents (FIG. 7A). […]

[3] = tested on: postnatal isl1+ progenitors in cardiac mesenchymal cells (CMC); assay: High-throughput chemical screening: β-gal activity quantified by luminescence (Beto-Glo); type: cell-based, mouse; settings: CMC with isl1+ progenitors, 4 days treatment, versus DMSO control
Protocol: Progenitors and High-Throughput Chemical Screening. […] Briefly, 30-40 hearts from 1-5 day-old isl1-mER-Cre-mER/R26R pups were used to prepare CMC, containing isl1+ progenitors marked by β-galactosidase. 4-OH-TM (Sigma), active form of tamoxifen, was added to the culture 1 day after plating at 1 μm. These were expanded for 7 days, trypsinized, and seeded at a density of 3,000 cells per well in 384-well plates.
Isolation of Murine Postnatal Cardiac Progenitors and High-throughput Chemical Screening. […] Briefly, 30-40 hearts from 1-5 day-old is1-mER-Cre-mER/R26R pups were used to prepare CMC, containing isl1^+ progenitors marked by β-galactosidase. 4-OH-TM (Sigma), active form of tamoxifen, was added to the culture 1 day after plating at 1 μm. These were expanded for 7 days, then trypsinized, and seeded at a density of 3,000 cells per well in a 384-well plate.
To find cardiac mesenchymal cells (CMC)-derived environmental cues involved in the renewal of isl1+ progenitors, the inventors developed a high-throughput chemical screening system, based on the coculture of CMC with postnatal isl1+ progenitors (FIG. 2A). […] The inventors used this library to screen for small molecules that would expand the rare population of postnatal isl1+ progenitors.

CMC = assay: Cleaved caspase-3 immunostaining (apoptosis); type: cell-based, mouse; settings: treated CMC
Description: To further validate the specificity of BIO function, the inventors tested two other ATP-competitive GSK-3-specific inhibitors: an acetoxime analog of BIO and 1-Azakenpaullone (Kunick et al., 2004; Meijer et al., 2003). […] Taken together, the inventors have discovered that BIO promotes the expansion of isl1+ progenitors by inhibiting GSK-3 activity.

[4] = tested on: human neonatal isl1+ progenitors; assay: Expansion of human neonatal isl1+ progenitors, isl1 immunostaining; type: cell-based; settings: human neonatal CMC, 4 days
Protocol: Isolation and Cell Culture Conditions of Human Postnatal Cardiac Progenitors. Biopsies are cut in small pieces and washed in solution A (10 mM Hepes, 35 mM NaCl, 10 mM glucose, 134 mM sucrose, 16 mM Na2HPO4, 25 mM NaHCO3, 7.75 mM KCl, 1.18 mM KH2PO4, pH 7.4), supplemented with 30 mM 2,3 butanedione 2-monoxime and 0.5 mM EGTA. First digestion step is performed in solution A supplemented with 0.5% BSA, 200 UI/ml of collagenase type II (Worthington) and 6 UI/ml protease type XXIV (Sigma) for 20 min at 37° C. to remove red blood cells and cell debris. Four digestion steps are performed in solution A supplemented with 400 UI/ml collagenase type V for 20 min at 37° C. and centrifuged at 30×g for 1 min. The supernatant is neutralized from the collagenase by adding ⅕ of NCS (newborn calf serum) and are centrifuged at 1300 rpm for 3-5 min. Pellet is resuspended in DMEM supplemented with 10% NCS, 5% FBS and Pen-Strep, and cells are seeded on chamber slide. BIO was added to the culture at different doses in complete progenitor medium and cultured for 4 days prior to immunostaining for Isl1.
In order to test whether BIO was capable of expanding human neonatal isl1^+ progenitors, human neonatal CMC were isolated from the biopsies of patients with congenital heart defects into single cells and cultured for 4 days in the presence or absence of BIO.

[5] = tested on: anterior heart field isl1+ progenitors (AHF-GFP ES cells); assay: Expansion of ES cell-derived anterior heart field GFP+/isl1+ cells on CMC feeder, FACS; type: cell-based, mouse; settings: 7 days on CMC feeder, versus control
Protocol: Differentiation was induced by forming embryoid bodies (EB's) in hanging drops of 600 cells in 15 μL of media without LIF. On day 6, the EB's were trypsinized into single cell suspension and sorted on the basis of GFP expression using flow cytometry. GFP positive cells were plated on a neonatal cardiac mesenchymal feeder layer for 7 days with one of four conditions: DMSO, BIO, and conditioned media from either control cells (L-Cells) or cells overexpressing wnt3A. After 7 days of expansion on the cardiac mesenchymal feeder layer, the cells were trypsinized and FACS sorted. Differentiation of the GFP positive cells was triggered as follow: into myocytes, on fibronectin by using DMEM/M199 (4:1 ratio) medium containing 10% horse serum and 5% FBS; into SM cells, on fibronectin by using DMEM/F12 containing B27 supplement, 2% FBS, and 10 ng/ml EGF.
To directly determine whether Wnt ligands are secreted from the CMC to promote the renewal of isl1^+ progenitors in a paracrine manner, the inventors developed an in vitro reconstitution of the mesenchymal niche.
To further characterize the nature of the CMC-derived cues, the inventors tested the ability of Wnt3a to reproduce this effect.

other protein kinases = settings: Plotkin et al., 2003; cited from earlier work

Compound: CC(=O)O/N=C1/C(=C2/C(=O)Nc3cc(Br)ccc32)Nc2ccccc21 [acetoxime analog of BIO]
- number of isl1+ progenitors [1]: substantially increased

Compound: siWLS-B: siRNA/shRNA against murine Wls/Evi, target sequence GGGTTACCGTGATGATATG (the letters are possibly those of the target site)
- luciferase activity of Wnt reporter cells (Wnt3a secretion) (murine Wls/Evi): significant reduction; also recorded: significantly decreased

Compound: siWLS-A: siRNA/shRNA against murine Wls/Evi, target sequence CACAAATCCTTTCTACAGTAT (the letters are possibly those of the target site)
- formation of MICPs (single β-gal+ cells) [2]: significantly increased
- luciferase activity of Wnt reporter cells (Wnt3a secretion) (murine Wls/Evi): significant reduction; also recorded: significantly decreased

Compound: O=C1Cc2c([nH]c3ccc(Br)cc23)-c2ncccc2N1 [1-Azakenpaullone]
- number of isl1+ progenitors [1]: substantially increased

Compound: O=C1Nc2cc(Br)ccc2/C1=C1/Nc2ccccc2/C1=N\O [BIO, 6-bromoindirubin-3′-oxime]
- β-gal activity (luciferase activity) [3]: significantly increase
- increase of number of isl1+ progenitors versus control [1]: 7 fold
- cluster formation of isl1+ progenitors, increase versus control ([1]; BIO at 2.5 μM): 11.6 fold
- number of isl1+ progenitors [1]: substantially increase; also recorded: increased the number of isl1^+ progenitors in a dose-dependent manner
- formation of isl1+ clusters ([1]; versus control treated samples): promoted isl1^+ progenitors to form large clusters
- apoptosis, cleaved caspase-3 immunostaining (CMC): no appreciable apoptosis
- number of human Isl1+ progenitors [4]: markedly increased
- expansion of GFP+/Isl1+ anterior heart field cells [5]: marked expansion; also recorded: greater expansion

Compound: GSK-3 peptide inhibitor: cell-permeable and substrate-competitive GSK-3 peptide inhibitor (GKEAPPAPPQSP)
- number of isl1+ progenitors [1]: significantly expand
- inhibitory effect on other protein kinases (other protein kinases): negligible inhibitory effect
